One data set relates to BRAPL. Description: greenhouse test, pre-emergence treatment. Format: in vivo, Brachiaria plantaginea. The text has this: (§1) The culture containers used were plastic flowerpots containing loamy sand with approximately 3.0% of humus as the substrate. The seeds of the test plants were sown separately for each species.
(§2) For the pre-emergence treatment, the active compounds, which had been suspended or emulsified in water, were applied directly after sowing by means of finely distributing nozzles. The containers were irrigated gently to promote germination and growth and subsequently covered with transparent plastic hoods until the plants had rooted. This cover caused uniform germination of the test plants, unless this has been impaired by the active compounds.
(§3) Depending on the species, the plants were kept at 10-25° C. or 20-35° C. […] During this time, the plants were tended, and their response to the individual treatments was evaluated. […]
(§4) The test period extended over 20 or 21 days. During this time, the plants were tended, and their reactions to the treatments with active compound were monitored.
(§5) In the examples below, using the method of S. R. Colby (1967) “Calculating synergistic and antagonistic responses of herbicide combinations”, Weeds 15, p. 22ff., the value E, which is expected if the activity of the individual active compounds is only additive, was calculated.
(§6) What was evaluated was the damage by the chemical compositions using a scale of from 0 to 100%, in comparison to the untreated control plants. […]

Another data set concerns ABUTH. Description: greenhouse test, pre-emergence treatment. Format: in vivo, Abutilon theophrasti.
Excerpt: as §1, §2, §3, §4, §5, §6

Data set [1] deals with ECHCG. Description: greenhouse test, pre-emergence treatment. Format: in vivo, Echinochloa crus-galli.
Excerpt: as §1, §2
(§7) Depending on the species, the plants were kept at 10-25° C. or 20-35° C. The test period extended over 2 to 4 weeks. During this time, the plants were tended, and their response to the individual treatments was evaluated.
(§8) Evaluation was carried out using a scale from 0 to 100. 100 means no emergence of the plants, or complete destruction of at least the aerial moieties, and 0 means no damage, or normal course of growth. A good herbicidal activity is given at values of at least 70 and a very good herbicidal activity is given at values of at least 85.
(§9) The respective stated components A and B were formulated as a 5% by weight strength or 10% by weight strength emulsion concentrate, or a commercial formulation of component B was used, and, with addition of the amount of solvent system, introduced into the spray liquor used for applying the active compound. In the examples, the solvent used was water.
as §4, §5
(§10) What was evaluated was the damage by the chemical compositions using a scale of from 0 to 100%, in comparison to the untreated control plants. 0 means no damage, and 100 means complete destruction of the plants.

In the next data set the test system is VIOAR. The experiment in a line: greenhouse test, pre-emergence treatment. Format: in vivo, Viola arvensis.
Excerpt: as §1, §2, §3, §4, §5, §6

Data set [2] relates to APESV. Description: greenhouse test, pre-emergence treatment. The note with it: for herbicidal activity against APESV: application rate 0.125 kg/ha, comparative test. Format: in vivo, Apera spica-venti.
Excerpt: as §1, §2, §7, §8, §9, §4, §5, §10

For another data set, the system named is CHEAL. Description: greenhouse test, post-emergence treatment. Format: in vivo, Chenopodium album.
Excerpt: as §1
(§11) For the post-emergence treatment, the test plants were first grown to a height of 3 to 15 cm, depending on the plant habit, and then treated with the active compounds which had been suspended or emulsified in water. For this purpose, the test plants were either sown directly and grown in the same containers, or they were first grown separately as seedlings and transplanted into the test containers a few days prior to treatment.
as §3, §4, §5, §6

For data set [3], the system named is POLCO. The experiment in a line: greenhouse test, pre-emergence treatment. Format: in vivo, Fallopia convolvulus.
Excerpt: as §1, §2, §3, §4, §5, §6

Data set [4] has as its system BROIN. The experiment in a line: greenhouse test, post-emergence treatment. Format: in vivo, Bromus inermis.
Excerpt: as §1, §11, §3, §4, §5, §6

Data set [5] has as its system BROIN. Description: greenhouse test, pre-emergence treatment. Format: in vivo, Bromus inermis.
Excerpt: as §1, §2, §7, §9, §4, §5, §10

The subject of data set [6] is ALOMY. Description: greenhouse test, pre-emergence treatment. Format: in vivo, Alopecurus agrestis. As to conditions: for herbicidal activity against ALOMY: application rate 0.125 kg/ha, comparative test.
Excerpt: as §1, §2, §7, §8, §9, §4, §5, §10

In data set [7] the test system is ALOMY. Description: greenhouse test, post-emergence treatment. Format: in vivo, Alopecurus agrestis.
Excerpt: as §1, §11, §3, §4, §5, §6

Another data set relates to LAMPU. Description: greenhouse test, pre-emergence treatment. Format: in vivo, Lamium purpureum.
Excerpt: as §1, §2, §3, §4, §5, §6

Data set [8] relates to APESV. The experiment in a line: greenhouse test, post-emergence treatment. Format: in vivo, Apera spica-venti.
Excerpt: as §1, §11, §3, §4, §5, §6

The subject of data set [9] is POLCO. The experiment in a line: greenhouse test, post-emergence treatment. Format: in vivo, Fallopia convolvulus.
Excerpt: as §1, §11, §3, §4, §5, §6

In another data set the test system is SETVI. Description: greenhouse test, pre-emergence treatment. Format: in vivo, Setaria viridis.
Excerpt: as §1, §2, §3, §4, §5, §6

Data set [10] relates to ECHCG. The experiment in a line: greenhouse test, post-emergence treatment. Format: in vivo, Echinochloa crus-galli. The note with it: application rate 1.0 kg/ha, scale from 0 to 100.
Excerpt: as §1, §11, §7, §8

The next data set relates to LOLMU. The experiment in a line: greenhouse test, post-emergence treatment. Format: in vivo, Lolium multiflorum. The note with it: application rate 1.0 kg/ha, scale from 0 to 100.
Excerpt: as §1, §11, §7, §8

Another data set relates to AVEFA. The experiment in a line: greenhouse test, post-emergence treatment. Format: in vivo, Avena fatua. The note with it: application rate 1.0 kg/ha, scale from 0 to 100.
Excerpt: as §1, §11, §7, §8

[11] abbreviates: application rate 0.125 kg/ha, comparative test.

Nine compounds from patent US20110130286A1, “Piperazine Compounds with Herbicidal Effect” (BASF SE, priority 2008, published 2011) can be followed below.

Broadly, the melting point is the temperature of the solid-liquid transition.

As to `CN1C(=O)C(C)(Cc2ccccc2)N(C)C(=O)C1=Cc1cccnc1C#N` (stereo not drawn) [Example 4, 3-(5-benzyl-1,4,5-trimethyl-3,6-dioxopiperazin-2-ylidene-methyl)pyridine-2-carbonitrile], the melting point amounted to 163 °C.

In the case of `CC(C)N(C)S(=O)(=O)NC(=O)c1cc(-n2c(=O)cc(C(F)(F)F)n(C)c2=O)c(F)cc1Cl` [saflufenacil, reference compound], the “Herbicidal activity in % after 20 days against BRAPL” value with BRAPL (6.25 g/ha a.s.) is reported as 35%. Besides, the “Herbicidal activity in % after 20 days against ABUTH” value with ABUTH (6.25 g/ha a.s.) was 90%. In the data set with ECHCG [1] (6.25 g/ha a.s.), the “Herbicidal activity in % after 20 days against ECHCG” value is reported as 0%. In addition, the “Herbicidal activity in % after 20 days against VIOAR” value with VIOAR (6.25 g/ha a.s.) worked out at 80%.

In turn, `CN1C(=O)C(C)(Cc2ccccc2)N(C)C(=O)C1=Cc1cccnc1Cl` (stereo not drawn) [Example 3, 3-benzyl-6-[1-(2-chloropyridin-3-yl)methylidene]-1,3,4-tri-methylpiperazine-2,5-dione] yielded a melting point of 146 °C.

Take `CC(C)CN1C(=O)C(=Cc2cccnc2Br)N(C)C(=O)C1(C)Cc1ccccc1` (racemic) [I-463]: the “herbicidal activity against ECHCG” value in the data set with ECHCG [1] (application rate 0.5 kg/ha, scale from 0 to 100) is given as “good (A good herbicidal activity is given at values of at least 70)”.

In the case of `CCC(CC)Nc1c([N+](=O)[O-])cc(C)c(C)c1[N+](=O)[O-]` [pendimethalin, reference compound], the “Herbicidal activity in % after 20 days against APESV” value in the data set on APESV [2] (250 g/ha a.s.) is recorded as 95%. The “Herbicidal activity in % after 20 days against CHEAL” value in the data set on CHEAL (250 g/ha a.s.) is given as 75%. Besides, the “Herbicidal activity in % after 20 days against POLCO” value with POLCO [3] (250 g/ha a.s.) amounted to 70%. In addition, the “Herbicidal activity in % after 20 days against BROIN” value in the data set on BROIN [4] (250 g/ha a.s.) is reported as 0%; in the data set with BROIN [5] (250 g/ha a.s.), 40%.

For `Cn1nc(C(F)(F)F)c(CS(=O)(=O)C2=NOC(C)(C)C2)c1OC(F)F` [pyroxasulfone, reference compound], the “Herbicidal activity in % after 20 days against ALOMY” value came to 90% in the data set with ALOMY [6] (12.5 g/ha a.s.) and 85% in the data set with ALOMY [7] (12.5 g/ha a.s.). Further, the “Herbicidal activity in % after 20 days against LAMPU” value in the data set with LAMPU (12.5 g/ha a.s.) worked out at 80%. The “Herbicidal activity in % after 20 days against APESV” value in the data set on APESV [8] (12.5 g/ha a.s.) is listed as 80%. Moreover, the “Herbicidal activity in % after 20 days against POLCO” value in the data set with POLCO [9] (12.5 g/ha a.s.) was found to be 40%. Also, the “Herbicidal activity in % after 20 days against SETVI” value with SETVI (12.5 g/ha a.s.) is recorded as 90%. In the data set with BROIN [5] (12.5 g/ha a.s.), the “Herbicidal activity in % after 20 days against BROIN” value is reported as 65%.

Regarding `CN1C(=O)C(C)(Cc2ccccc2)N(C)C(=O)C1=Cc1cccnc1Br` (racemic) [I-1], in the data set with ECHCG [10], the “herbicidal activity against ECHCG” value was “very good (a very good herbicidal activity is given at values of at least 85)”. In the data set with LOLMU, the “herbicidal activity against LOLMU” value is listed as “very good (a very good herbicidal activity is given at values of at least 85)”. Moreover, in the data set with AVEFA, the “herbicidal activity against AVEFA” value is recorded as “very good (a very good herbicidal activity is given at values of at least 85)”.

Turning to `CN1C(=O)C(Cc2ccccc2)N(C)C(=O)/C1=C/c1cccnc1C#N` (stereo not drawn) [Ex. 14, reference compound], in the data set on ALOMY [6], the “herbicidal activity against ALOMY” value is reported as “no herbicidal activity”. In the data set with ECHCG [1] (setting [11]), the “herbicidal activity against ECHCG” value is listed as “no herbicidal activity”. Besides, the “herbicidal activity against APESV” value in the data set with APESV [2] amounted to 90%.

In turn, `CN1C(=O)C(C)(Cc2ccccc2)N(C)C(=O)/C1=C/c1cccnc1C#N` (stereo not drawn) [I-2] gave a melting point of 163 °C. Further, the “Herbicidal activity in % after 20 days against BRAPL” value in the data set on BRAPL (62.5 g/ha a.s.) came out at 65%. The “Herbicidal activity in % after 20 days against ABUTH” value in the data set with ABUTH (62.5 g/ha a.s.) amounted to 0%. The “Herbicidal activity in % after 20 days against ALOMY” value in the data set on ALOMY [6] (62.5 g/ha a.s.) was found to be 65%. Further, the “herbicidal activity against ALOMY” value in the data set with ALOMY [6] amounted to 75%. In the data set on ALOMY [7] (62.5 g/ha a.s.), the “Herbicidal activity in % after 20 days against ALOMY” value is listed as 45%. Moreover, the “Herbicidal activity in % after 20 days against LAMPU” value in the data set with LAMPU (62.5 g/ha a.s.) came to 40%. Moreover, the “Herbicidal activity in % after 20 days against APESV” value in the data set with APESV [8] (62.5 g/ha a.s.) is reported as 40%. For the same compound, in the data set with ECHCG [1] (62.5 g/ha a.s.), the “Herbicidal activity in % after 20 days against ECHCG” value amounted to 40%. The “herbicidal activity against ECHCG” value with ECHCG [1] (setting [11]) was 80%. The “Herbicidal activity in % after 20 days against APESV” value with APESV [2] (125 g/ha a.s.) came to 95%. The “herbicidal activity against APESV” value in the data set on APESV [2] stood at 100%. Moreover, in the data set on POLCO [9] (62.5 g/ha a.s.), the “Herbicidal activity in % after 20 days against POLCO” value is 40%. In addition, the “Herbicidal activity in % after 20 days against SETVI” value in the data set with SETVI (62.5 g/ha a.s.) is 90%. Further, the “Herbicidal activity in % after 20 days against CHEAL” value in the data set on CHEAL (125 g/ha a.s.) is 70%. Besides, the “Herbicidal activity in % after 20 days against POLCO” value in the data set with POLCO [3] (125 g/ha a.s.) came to 80%. In addition, the “Herbicidal activity in % after 20 days against BROIN” value with BROIN [4] (125 g/ha a.s.) is given as 45%. Further, in the data set with VIOAR (62.5 g/ha a.s.), the “Herbicidal activity in % after 20 days against VIOAR” value was determined as 60%. The “Herbicidal activity in % after 20 days against BROIN” value in the data set with BROIN [5] (62.5 g/ha a.s.) is given as 20%. The “Herbicidal activity in % after 20 days against BROIN” value in the data set with BROIN [5] (125 g/ha a.s.) came to 80%.
